We go through 15 compounds from patent publication US8809343B2, “Pyrimidine derivative, preparation method and use thereof” (Fudan University, priority 2008, dated 2014).

In general, EC50 refers to the midpoint of the concentration-response curve. For orientation: CC50 means the concentration at which the toxic effect on the cells reaches its halfway point. By IC50 is commonly meant the concentration that inhibits the measured activity by half. Low values mean greater potency in that assay, high ones weaker potency in that assay.

Where two headings read alike, the source gives them in different places. Bounds are passed on as bounds.

One data set concerns HIV-1 IIIB strain. Briefly: Anti-HIV activity: protection of HIV-infected MT-4 cells from virus-induced cell lesions. It counts as cell-based. Here is the method:
(§1) Anti-virus activity of cells in vitro was determined by Rega Institute for Medical of […] Katholleke University, consisting mainly: inhibitory activity towards HIV-infected MT-4 cells and cell toxicity. The method is described below: exert the compound on the HIV-infected ME-4 cells, and determine the protection of the drug on the cell lesions induced by HIV at varied HIV-infection intervals, calculate the half effective concentration IC50, the required concentration that protect 50% of cells from cell lesions induced by HIV. Toxicity determination is carried out in parallel with anti-HIV activity experiments, also in the cultured MT-4 cells, determine the CC50, the concentration that leads 50% of uninfected cells to cell lesions, and calculate the selectivity index SI=CC50/IC50 with the MTT method.
(§2) Anti-HIV activity of various compounds is monitored by the inhibitory efficiency of drugs on the cell lesions induced by HIV. Carry out cell culture with MT-4 cells. The adopted virus strains are HIV-1 IIIB strain and drug-resistant viral strain of […].
(§3) The detailed operation is as follows: the compound is dissolved with DMSO or water and diluted with phosphate buffer saline, 3×10^5 MT-4 cells are cultured with 100 μL various concentrations of compounds for 1 h, then 100 μL suitable virus dilution is added to the compound, and the cells are cultured at 37° C. for 1 h. After being washed for 3 times, the cells are suspended again in the culture media containing or not compounds individually. Subsequently, the cells are transferred to the atmosphere containing 5% CO2 and cultured for 7 days at 37° C., and culture media containing or not compounds are used to replace or supplement the culture solution on the third day after infection. Kinds of culture conditions should be duplicated. The cell lesions caused by virus are monitored with reverse light microscopy everyday. Typically, the virus dilution applied in the present experiments generally cause cell lesion on the fifth day after infection. […] It should be emphasized that, when the compound is poorly water-soluble and can only be dissolved in DMSO, the ratio of DMSO to water is generally below 10% (the final concentration of DMSO in MT-4 cell culture media is smaller than 2%). Because DMSO can influence the anti-virus activity of the tested compounds, blank tests on the solution containing the same concentration of DMSO should be conducted in parallel. Additionally, the final concentration of DMSO is far below the concentration required to influence the replication of HIV-1 in T cells.

The subject of data set [1] is drug-resistant viral strain of […]. Briefly: Anti-HIV activity in MT-4 cells, drug-resistant viral strain. It counts as cell-based, HIV-1. How it is done: as §1, §2, §3
The nature of data set [2]: Cell toxicity in uninfected MT-4 cells (MTT method). Type of data set: cell-based. To be noted: human. How it is done: as §1, §3
(In general: Tetrazolium assays rely on reduction of a dye to a coloured formazan, in cell work by metabolically active cells.)

The next data set deals with T1, HIV-1 RT (Human immunodeficiency virus type 1 group M subtype B, UniProt P03366).
T1 construct: Screening for in vitro activity of anti HIV-1 reverse transcriptase (HIV-1 RT); made in house
Put plainly: In vitro anti HIV-1 reverse transcriptase screening (Biotin-dUTP, OD450). It counts as biochemical.

The subject of the next data set is MT-4 cells. Briefly: Cell toxicity in uninfected MT-4 cells (MTT method). To be noted: Table 1. Type of data set: cell-based. How it is done:
as §1, §3

Setting [3] is: HIV-1 IIIB, MT-4 cells, Table 1.
[4] abbreviates: Human immunodeficiency virus 1, MT4, read-out: EC50 103N + 181C, MT-4 cells, Table 1.
[5] abbreviates: Human immunodeficiency virus 1, MT4, read-out: EC50 103N + 181C, MT-4 cells, Table 2.
Setting [6] is: Human immunodeficiency virus 1, IIIB, MT4, read-out: EC50 WT(IIIB).
[7] abbreviates: Human immunodeficiency virus 1, IIIB, MT4, read-out: EC50 HIV-1(IIIB).
The mark [8] stands for this setting: MT-4 cells, Table 1, read-out: EC50 HIV-1(IIIB).
Setting [9] is: MT-4 cells, Table 1, read-out: EC50 103N + 181C.

In the case of `O=C1Nc2ccc(Cl)cc2[C@@](C#CC2CC2)(C(F)(F)F)O1` [EFV, efavirenz, reference compound], the “SI (Selectivity index, the ratio of CC50/IC50)” value is more than 1434 in the data set on HIV-1 IIIB strain (setting [3]); more than 2174 in the data set with HIV-1 IIIB strain (HIV-1 IIIB, MT-4 cells, Table 3); more than 1434 in the data set with HIV-1 IIIB strain (WT(IIIB), Table 2). The concentration for a half-maximal effect (EC50) in the data set on HIV-1 IIIB strain (Human immunodeficiency virus 1, IIIB, MT4, MT-4 cells, Table 1, read-out: EC50 HIV-1(IIIB)) is 3 nM; with HIV-1 IIIB strain (Human immunodeficiency virus 1, IIIB, MT4, MT-4 cells, Table 2, read-out: EC50 WT(IIIB)), 3 nM; in data set [1] (setting [4]), 560000 nM; in data set [1] (setting [5]), 560 nM. In addition, the CC50 at 7 days in data set [2] (Table 1) was 4300 nM; in data set [2] (Table 3) it was more than 6340 nM.
With `N#Cc1ccc(Nc2nccc(Oc3ccc4cc(C#N)ccc4c3Cl)n2)cc1` [Compound 23], the results for the EC50 (in the data set on HIV-1 IIIB strain (setting [6]); in data set [1] (setting [5])) were 1.8 nM and 700 nM, respectively. Further, the “SI (Selectivity index, the ratio of CC50/IC50)” value in the data set on HIV-1 IIIB strain (WT(IIIB), Table 2) is on record as 47964. This compound returned a CC50 at 7 days in data set [2] (uninfected MT-4 cells, Table 2) of 86300 nM.
Take `COc1cc(Oc2cccc3cccnc23)nc(Nc2ccc(C#N)cc2)n1` [Compound 4]: the “SI (Selectivity index, the ratio of CC50/IC50)” value in the data set with HIV-1 IIIB strain (setting [3]) is 3299. Further, the EC50 was 12.8 nM in the data set on HIV-1 IIIB strain (setting [7]) and not below 42200 nM in data set [1] (setting [4]). Further, the CC50 at 7 days in data set [2] (uninfected MT-4 cells, Table 1) was found to be 42200 nM.
Turning to `COc1cc2cc(C#N)ccc2cc1Oc1ccnc(Nc2ccc(C#N)cc2)n1` [Compound 21], in the data set on HIV-1 IIIB strain (setting [6]), the EC50 was 0.9 nM. In addition, in the data set with HIV-1 IIIB strain (WT(IIIB), Table 2), the “SI (Selectivity index, the ratio of CC50/IC50)” value is given as more than 158228. This compound also showed a CC50 at 7 days in data set [2] (uninfected MT-4 cells, Table 2) of 142000 nM. Inhibition at HIV-1 RT was half-maximal at 1320 nM (IC50).
Regarding `CNc1cc(Oc2cccc3cccnc23)nc(Nc2ccc(C#N)cc2)n1` [Compound 3], in the data set on HIV-1 IIIB strain (setting [3]), the “SI (Selectivity index, the ratio of CC50/IC50)” value is listed as 6089. Moreover, the values for the concentration giving a half-maximal response (EC50) (in the data set on HIV-1 IIIB strain (setting [7]); in data set [1] (setting [4])) were 8.9 nM and not below 54200 nM, respectively. In data set [2] (uninfected MT-4 cells, Table 1), this compound registered a CC50 at 7 days of 54200 nM.
For `Cc1c(Oc2ccnc(Nc3ccc(C#N)cc3)n2)ccc2ccccc12` [Compound 10], the EC50 is 3.46 nM in the data set on HIV-1 IIIB strain (setting [8]) and 11000 nM in data set [1] (setting [9]). Further, in the data set on MT-4 cells, the CC50 amounted to 114000 nM.
Turning to `CNc1nc(Nc2ccc(C#N)cc2)nc(Oc2ccc3cc(C#N)ccc3c2)c1C(C)C` [Compound 19], the EC50 was determined as 7.6 nM in the data set with HIV-1 IIIB strain (setting [8]) and 4580 nM in data set [1] (setting [9]). This compound had a CC50 with MT-4 cells of 265000 nM.
For the compound `CC(C)c1c(Cl)nc(Nc2ccc(C#N)cc2)nc1Oc1ccc2cc(C#N)ccc2c1` [Compound 9], the EC50 is 50 nM in the data set with HIV-1 IIIB strain (setting [8]) and 3360 nM in data set [1] (setting [9]). The CC50 in the data set on MT-4 cells is 436000 nM.
Regarding `N#Cc1ccc(Nc2nc(Cl)cc(Oc3cccc4cccnc34)n2)cc1` [Compound 2], the “SI (Selectivity index, the ratio of CC50/IC50)” value with HIV-1 IIIB strain (setting [3]) is given as 1031. Moreover, the results for the EC50 (in the data set on HIV-1 IIIB strain (setting [7]); in data set [1] (setting [4])) were 19.5 nM and not below 20100 nM, respectively. The compound also showed a CC50 at 7 days in data set [2] (uninfected MT-4 cells, Table 1) of 20100 nM.
With `COc1cc2cc(C#N)ccc2c(Cl)c1Oc1ccnc(Nc2ccc(C#N)cc2)n1` [Compound 24], the results for the EC50 (in the data set on HIV-1 IIIB strain (setting [6]); in data set [1] (setting [5])) were 0.6 nM and 150 nM, respectively. Further, the “SI (Selectivity index, the ratio of CC50/IC50)” value in the data set with HIV-1 IIIB strain (WT(IIIB), Table 2) is reported as “≧25701”. This compound yielded a CC50 at 7 days in data set [2] (uninfected MT-4 cells, Table 2) of 15400 nM.
For the compound `N#Cc1ccc(Nc2nccc(Oc3ccc4cc(C#N)ccc4c3Br)n2)cc1` [Compound 15], the EC50 was determined as 1.6 nM in the data set on HIV-1 IIIB strain (setting [8]) and 240 nM in data set [1] (setting [9]). Moreover, the CC50 with MT-4 cells turned out to be 290000 nM.
Turning to `N#Cc1ccc(Nc2nccc(Oc3cccc4cccnc34)n2)cc1` [Compound 1], in the data set with HIV-1 IIIB strain (setting [3]), the “SI (Selectivity index, the ratio of CC50/IC50)” value stood at 13393. Moreover, the figures for the EC50 (with HIV-1 IIIB strain (setting [7]); in data set [1] (setting [4])) were 2.9 nM and not below 38800 nM, respectively. For the same compound, in data set [2] (uninfected MT-4 cells, Table 1), it took 38800 nM to reach half-maximal cytotoxicity (CC50 at 7 days).
For the compound `COc1cc2cc(C#N)ccc2c(OC)c1Oc1ccnc(Nc2ccc(C#N)cc2)n1` [Compound 22], the figures for the EC50 (in the data set with HIV-1 IIIB strain (setting [6]); in data set [1] (setting [5])) were 0.8 nM and 160 nM, respectively. Moreover, the “SI (Selectivity index, the ratio of CC50/IC50)” value with HIV-1 IIIB strain (WT(IIIB), Table 2) is given as “≧25000”. In data set [2] (uninfected MT-4 cells, Table 2), half-maximal cytotoxicity (CC50 at 7 days) was put at 20000 nM. Besides, the IC50 against HIV-1 RT was 94.5 nM.
Turning to `Cc1cc2ccccc2c(C)c1Oc1ccnc(Nc2ccc(C#N)cc2)n1` [Compound 12], the EC50 turned out to be 4.1 nM with HIV-1 IIIB strain (setting [8]) and 1170 nM in data set [1] (setting [9]). The CC50 in the data set on MT-4 cells was determined as 313000 nM.
Take `COc1c(Oc2ccnc(Nc3ccc(C#N)cc3)n2)ccc2cc(C#N)ccc12` [Compound 20]: the EC50 with HIV-1 IIIB strain (setting [6]) was 1.2 nM; in data set [1] (setting [5]), 380 nM. In the data set with HIV-1 IIIB strain (WT(IIIB), Table 2), the “SI (Selectivity index, the ratio of CC50/IC50)” value was “≧134032”. In data set [2] (uninfected MT-4 cells, Table 2), the midpoint of cytotoxicity, the CC50 at 7 days, lay at 161000 nM. The compound also had an IC50 against HIV-1 RT of 2290 nM.
